Entries after “also recorded” stand apart in the source; their conditions may differ. Where two headings read alike, the source gives them in different places.
Key:
[1] = system: Influenza A (H3N2); test: microbe, parasite or virus in culture; type: cell-based; conditions: H3N2, MDCK, read-out: EC50 Influenza A (H3N2)
[2] = in vitro; conditions: dog, CC50 MDCK
[3] = system: Influenza A (H5N1); test: microbe, parasite or virus in culture; type: cell-based; conditions: H5N1, MDCK, read-out: EC50 Influenza A (H5N1)
[4] = system: Influenza B; test: microbe, parasite or virus in culture; type: cell-based; conditions: MDCK, read-out: EC50 Influenza B
[5] = system: enterovirus-71 (Tainan/4643/98 strain); test: organism not typed; type: cell-based; conditions: Vero 76, read-out: EC50 enterovirus-71
[6] = system: MDCK cells; conditions: dog
[7] = system: tacaribe virus (TRVL11573 strain); test: microbe, parasite or virus in culture; type: cell-based; conditions: read-out: Tacaribe virus EC50 TRVL 11573 strain
[8] = in vitro; conditions: African green monkey
[9] = system: influenza A (H1N1) virus (California/07/2009 strain); test: microbe, parasite or virus in culture; type: cell-based
[10] = in vitro; conditions: African green monkey, Tacaribe virus CC50 Vero
[11] = system: Huh7 cells; conditions: read-out: Yellow fever virus CC50 Huh7, YFV screen
[12] = system: MERS-CoV (EMC strain); test: microbe, parasite or virus in culture; type: cell-based
[13] = system: Vero 76 cells
[14] = system: measles virus (CC strain); test: microbe, parasite or virus in culture; type: cell-based
[15] = system: Vero cells; conditions: African green monkey
[16] = system: dengue virus 2 (New Guinea C strain); test: microbe, parasite or virus in culture; type: cell-based

CCc1ncnc2c1c(F)cn2[C@@H]1O[C@H](CO)[C@@H](O)[C@H]1O [3.1r, 6-Ethyl-7-Fluoro-9-β-D-ribofuranosyl-7-deazapurine]
EC50 [1]: < 0.1 µM
CC50 [2]: 32 µM
EC50 [3]: < 0.1 µM
EC50 [4]: < 0.1 µM
EC50 [5]: > 100 µM
CC50 [6]: 43 µM
EC50 ([7]; Mammarenavirus tacaribeense, Vero): > 63 µM
EC50 [7]: 43 µM
CC50 ([8]; CC50): > 100 µM
CC50 ([8]; Measles CC50 Vero 76): 32 µM
EC50 ([9]; Influenza A virus, H1N1, MDCK, read-out: EC50 California/07/2009 strain): 0.34 µM
EC50 ([9]; Influenza A virus, H1N1, MDCK, read-out: EC50 Influenza A (H1N1)): 0.34 µM
EC50 ([9]; read-out: EC50 California/07/2009 strain): 0.32 µM
CC50 [10]: 63 µM
CC50 ([11]; Neutral Red): 1.9 µM
CC50 ([11]; Visual): > 100 µM
activity against MERS-CoV in words [12]: moderately active with low selectivity index; also recorded: low micromolar to submicromolar activity
EC50 ([12]; Middle East respiratory syndrome-related coronavirus, Vero 76, read-out: MERS-CoV EC50 EMC strain): 3 µM
EC50 ([12]; read-out: MERS-CoV EC50 EMC strain): 2.5 µM
CC50 ([13]; African green monkey): 42 µM
CC50 ([13]; read-out: MERS-CoV CC50 Vero 76, Neutral Red, MERS-CoV screen): 46 µM
CC50 ([13]; read-out: MERS-CoV CC50 Vero 76, Visual, MERS-CoV screen): 100 µM
EC50 ([14]; Measles morbillivirus, Vero 76, read-out: Measles EC50 CC strain): 7.7 µM
EC50 ([14]; read-out: Measles EC50 CC strain): 9.6 µM
CC50 [15]: 59 µM
activity against dengue virus 2 in words [16]: low micromolar to submicromolar activity
